{"source": "patent US9206405B2", "about": "“Glycosyl hydrolase with beta-xylosidase and beta-glucosidase activities and uses thereof” (Institute of Materia Medica, Chinese Academy of Medical …, priority 2010, dated 2015)", "key": {"LXYL-P1 (or P1) protein": {"tested_on": "LXYL-P1 (or P1) protein", "experiment": "Specificity test on different glycoside (chromogenic) substrates hydrolysis by purified LXYL-P1", "assay_type": "biochemical, Lentinula edodes M95.33", "conditions": "20 min; for hydrolysis of chromogenic substrate by P1 protein (in words): 50° C., pH 5.0; for Relative activity (% control): control = PNP-Xyl; for Relative activity (% control) / OD405 value: 5 mM substrate, pH 5.0, 50° C., purified P1; for OD405 value: release of p-nitrophenol at 405 nm", "experimental": "In addition to the β-xylosidase activity, especially the activity of hydrolyzing 7-xylosyltaxanes, the specificity of the LXYL-P1 (or P1) on other glycoside substrates was also tested by employing four chromogenic substrates: p-nitrophenyl-β-D-glucopyranoside (PNP-Glc), p-nitrophenyl-β-D-galactopyranoside (PNP-Gal), p-nitrophenyl-α-L-arabinopyrano side (PNP-Ara), and p-Nitrophenyl-β-D-xylopyranoside (PNP-Xyl, serving as a control). Each of the chromogenic substrates was prepared in 50 mM acetate buffer to obtain 5 mM solution (pH 5.0).\nTo the purified P1 protein diluent (25 μl) obtained in example 1, 100 μl of each chromogenic substrate was added. The reaction was performed at 50° C. for 20 min and stopped with 2 ml saturated solution of sodium borate. Release of p-nitrophenol (absorbance value) was measured at 405 nm."}, "[1]": {"tested_on": "recombinant yeast GS115-3.5K-P1-2", "experiment": "Hydrolysis of XDB by the recombinant yeast", "assay_type": "cell-based, Pichia pastoris", "conditions": "8 mg XDB/ml, 16 mg dry cells/ml, 24 h, 30-55° C., HPLC", "experimental": "The strain was the same as that in Example 6 and the substrate was 7-xylosyl-10-deacetylbaccatin III (XDB). 1.5 ml cell reaction solution contained 16 mg dry cells per milliliter and 8 mg XDB per milliliter. The mixture was incubated in a water shaking bath for 24 h at 30˜55° C."}, "[2]": {"tested_on": "Moraxella sp. (ATCC55475)", "conditions": "XDT 0.25 mg/ml, wet cells 91.5 mg/ml, 21 h, 28° C.; cited from earlier work"}, "[3]": {"tested_on": "Leifsonia shinshuensis DICP 16", "conditions": "1 mg XDT in 2 ml cell suspension, 21 h, 30° C.; cited from earlier work"}, "LXYL-P2 (or P2)": {"tested_on": "LXYL-P2 (or P2)", "experiment": "XDT conversion by Phenyl Sepharose peak LXYL-P2, thin layer chromatography", "assay_type": "biochemical, Lentinula edodes M95.33", "conditions": "TLC, FIG. 1B", "source_text": "(§1) FIG. 1: Phenyl Sepharose hydrophobic column chromatography of the β-xylosidase-β-glucosidase from the protein extract of the fungus M95.33 (A), and thin layer chromatography (TLC) of XDT conversion (B). • A: P1. active elution peak of LXYL-P1; P2. active elution peak of LXYL-P2. […] XDT (control); 2. DT (control); 3. XDT bioconversion by LXYL-P1; 4. XDT bioconversion by LXYL-P2.\n(§2) The fraction eluted in the above step was applied to a Phenyl Sepharose hydrophobic column (1.6 cm×20 cm) equilibrated with 50 mM Tris-HCl buffer (pH 8.0) containing 1 M […]. Elution was performed with Tris-HCl buffer (50 mM, pH8.0) having a linear gradient of 1.0˜0 M (NH4)2SO4 (at a flow rate of 2 ml/min). Fractions having enzymatic activity were collected and dialyzed with Tris-HCl buffer (50 mM, pH8.0).\n(§3) Within penal B, 1 was XDT control; 2 was DT control; 3 was XDT conversion by P1; and 4 was XDT conversion by P2."}, "[4]": {"tested_on": "recombinant yeast GS115-3.5K-P1-2", "experiment": "Hydrolysis of 7-xylosyltaxane mixtures by the recombinant yeast", "assay_type": "cell-based, Pichia pastoris", "conditions": "7-xylosyltaxane mixtures about 8 mg/ml, 24 h, 30-55° C., HPLC", "source_text": "The recombinant yeast GS115-3.5K-P1-2 (transformant of the recombinant expression plasmid pPIC3.5K-P1-2) obtained in Example 4 was applied in the following bioconversion reaction, wherein the substrates to be converted were 7-xylosyltaxane mixtures, the main components of which included 62.12% of 7-xylosyl-10-deacetyltaxol, 12.75% of 7-xylosyl-10-deacetylcephalomannine, 17.04% of 7-xylosyl-10-deacetyltaxol C, and 8.09% of other components.\nThe method for culturing the recombinant strain was the same as in Example 5. 16 ml 7-xylosyltaxane mixtures (at a concentration of 100 mg/ml) were added to 200 ml recombinant strain reaction solution with the final concentration of the 7-xylosyltaxane mixtures being about 8 mg/ml (supersaturated). The recombinant yeast introduced with the null vector was taken as the negative control. The solution was mixed by magnetic stirring for 24 h at 30˜55° C. […] The yields of the three main products: 10-deacetyltaxol (DT): 3.27 mg/ml; 10-deacetylcephalomannine (DC): 0.74 mg/ml; and 10-deacetyltaxol C (DTC): 0.92 mg/ml."}, "[5]": {"tested_on": "recombinant yeast GS115-9K-P1-2", "experiment": "Hydrolysis of 7-xylosyl-10-deacetyltaxol (XDT) by the recombinant yeast", "assay_type": "cell-based, Pichia pastoris", "conditions": "XDT 0.625 mg/ml, 12 h, 30-55° C.", "experimental": "The recombinant yeast GS115-9K-P1-2 (transformant of the recombinant expression plasmid pPIC-9K-P1-2) obtained in example 4 was cultured and induced for 5 days in the manner of Example 4. Cells were centrifuged, harvested and washed, and then was, directly or after lyophilization, suspended with 50 mM acetate buffer or phosphate buffer (65 mg wet cells/ml or 16 mg dry cells/ml, pH 3.5˜7.5), and used as the hydrolytic reaction solution. To 20 ml of the cell reaction solution, 0.5 ml solution of 7-xylosyl-10-deacetyltaxol (XDT) was added with the final concentration of XDT being 0.625 mg/ml. The resultant was incubated in a water shaking bath for 12 h at 30˜55° C.\nExtraction was performed with ethyl acetate after the reaction was completed."}, "LXYL-P1 (or P1)": {"tested_on": "LXYL-P1 (or P1)", "experiment": "XDT conversion by Phenyl Sepharose peak LXYL-P1, thin layer chromatography", "assay_type": "biochemical, Lentinula edodes M95.33", "conditions": "TLC, FIG. 1B", "source_text": "as §1, §2, §3"}, "[6]": {"tested_on": "recombinant strain GS115-9K-P1-2", "experiment": "β-xylosidase activity of the recombinant yeast strain on PNP-Xyl", "assay_type": "cell-based, Pichia pastoris", "experimental": "FIG. 4: Comparison of the recombinant strains GS115-9K-P1-2 and GS115-9K (control) on β-xylosidase activity.\nBMGY medium (contains per liter: 10.00 g yeast extract, 20.00 g peptone, 100 mM potassium phosphate buffer, pH 6.0, 10 ml glycerol) and BMMY medium (10 ml glycerol in BMGY medium was replaced with 10 ml methanol as the carbon source) were used as the seed culture and fermentation media respectively for the recombinant yeast. The resistant strain obtained by screening was inoculated into 10 ml seed culture medium and incubated at 30° C., 220 rpm for 18 h. The cultures were washed 2 times by centrifugation and the cell pellet was transferred into 50 ml fermentation medium. Cells were cultured at 30° C., 220 rpm, and 1% methanol was added every 24 h for induction of expression of the recombinant protein. Meanwhile the enzyme activity of the recombinant strain was detected regularly. […]"}}, "data": [{"smiles": "O=[N+]([O-])c1ccc(O[C@@H]2O[C@H](CO)[C@@H](O)[C@H](O)[C@H]2O)cc1", "note": "[PNP-Glc, p-nitrophenyl-β-D-glucopyranoside]", "values": [{"measurement": "hydrolysis of chromogenic substrate by P1 protein (in words)", "setting": "LXYL-P1 (or P1) protein", "value": "could hydrolyze"}, {"measurement": "Relative activity (% control)", "setting": "LXYL-P1 (or P1) protein", "value": 217, "unit": "% control"}, {"measurement": "OD405 value", "setting": "LXYL-P1 (or P1) protein", "value": 1.615}]}, {"smiles": "CC(=O)O[C@@]12CO[C@@H]1C[C@H](O[C@@H]1OC[C@@H](O)[C@H](O)[C@H]1O)[C@@]1(C)C(=O)[C@H](O)C3=C(C)[C@@H](O)C[C@@](O)([C@@H](OC(=O)c4ccccc4)[C@H]21)C3(C)C", "note": "[XDB, 7-Xylosyl-10-deacetylbaccatin III]", "values": [{"measurement": "conversion ratio", "setting": "[1]", "value": 86.54, "unit": "%"}]}, {"smiles": "CC(=O)O[C@@]12CO[C@@H]1C[C@H](O[C@@H]1OC[C@@H](O)[C@H](O)[C@H]1O)[C@@]1(C)C(=O)[C@H](O)C3=C(C)[C@@H](OC(=O)[C@H](O)[C@@H](NC(=O)c4ccccc4)c4ccccc4)C[C@@](O)([C@@H](OC(=O)c4ccccc4)[C@H]21)C3(C)C", "note": "[XDT, 7-Xylosyl-10-deacetyltaxol]", "values": [{"measurement": "XDT remaining after reaction (HPLC)", "setting": "[2]", "value": "No XDT was found to be remaining"}, {"measurement": "XDT remaining after reaction (HPLC)", "setting": "[3]", "value": "No XDT was found to be remaining"}, {"measurement": "hydrolysis of XDT into DT by P2", "setting": "LXYL-P2 (or P2)", "value": "could hydrolyze"}, {"measurement": "conversion ratio", "setting": "[4]", "value": 92.45, "unit": "%"}, {"measurement": "conversion ratio", "setting": "[5]; HPLC", "value": 98.80, "unit": "%"}, {"measurement": "substrate transformation by TLC", "setting": "[5]; TLC", "value": "completely transformed"}, {"measurement": "hydrolysis of XDT into DT by P1", "setting": "LXYL-P1 (or P1)", "value": "could hydrolyze"}]}, {"smiles": "O=[N+]([O-])c1ccc(O[C@@H]2O[C@H](CO)[C@H](O)[C@H](O)[C@H]2O)cc1", "note": "[PNP-Gal, p-nitrophenyl-β-D-galactopyranoside]", "values": [{"measurement": "Relative activity (% control)", "setting": "LXYL-P1 (or P1) protein", "value": 0, "unit": "% control"}, {"measurement": "OD405 value", "setting": "LXYL-P1 (or P1) protein", "value": 0.000}]}, {"smiles": "CCCCCC(=O)N[C@@H](c1ccccc1)[C@@H](O)C(=O)O[C@H]1C[C@@]2(O)[C@@H](OC(=O)c3ccccc3)[C@@H]3[C@]4(OC(C)=O)CO[C@@H]4C[C@H](O[C@@H]4OC[C@@H](O)[C@H](O)[C@H]4O)[C@@]3(C)C(=O)[C@H](O)C(=C1C)C2(C)C", "note": "[XDTC, 7-Xylosyl-10-deacetyltaxol C]", "values": [{"measurement": "conversion ratio", "setting": "[4]", "value": 92.00, "unit": "%"}]}, {"smiles": "O=[N+]([O-])c1ccc(O[C@@H]2OC[C@H](O)[C@H](O)[C@H]2O)cc1", "note": "[PNP-Ara, p-nitrophenyl-α-L-arabinopyranoside]", "values": [{"measurement": "Relative activity (% control)", "setting": "LXYL-P1 (or P1) protein", "value": 0, "unit": "% control"}, {"measurement": "OD405 value", "setting": "LXYL-P1 (or P1) protein", "value": 0.000}]}, {"smiles": "O=[N+]([O-])c1ccc(O[C@@H]2OC[C@@H](O)[C@H](O)[C@H]2O)cc1", "note": "[PNP-Xyl, p-nitrophenyl-β-D-xylopyranoside]", "values": [{"measurement": "hydrolysis of chromogenic substrate by P1 protein (in words)", "setting": "LXYL-P1 (or P1) protein", "value": "could hydrolyze"}, {"measurement": "Relative activity (% control)", "setting": "LXYL-P1 (or P1) protein", "value": 100, "unit": "% control"}, {"measurement": "OD405 value", "setting": "LXYL-P1 (or P1) protein", "value": 0.745}, {"measurement": "ability of recombinant strain to hydrolyze the substrate", "setting": "[6]; cell suspension, 5 mM PNP-Xyl, 20 min, 30-55° C.", "value": "has the ability to hydrolyze"}, {"measurement": "enzymatic activity in supernatant of fermentation broth of recombinant strain", "setting": "[6]; supernatant of the fermentation broth", "value": "no obvious enzymatic activity was detected"}]}, {"smiles": "CC=C(C)C(=O)NC(c1ccccc1)C(O)C(=O)OC1CC2(O)C(OC(=O)c3ccccc3)C3C4(OC(C)=O)COC4CC(OC4OCC(O)C(O)C4O)C3(C)C(=O)C(O)C(=C1C)C2(C)C", "note": "(stereo not shown) [XDC, 7-Xylosyl-10-deacetylcephalomannine]", "values": [{"measurement": "conversion ratio", "setting": "[4]", "value": 93.60, "unit": "%"}]}]}
